This is an account of results in the SangsterLogP compilation.

Molecules are shown by their SMILES.

Regarding `CC(C)OC(=O)c1ccccc1`, the lipophilicity (logP) is 3.09. For `CCCCCCCC/C=C\CCCCCCCC(=O)O`, the log partition coefficient (logP) came to 7.64. Next, `CCCCCCCCCCCCCCCCCC(=O)O`: 8.23; `CCCCC/C=C\C/C=C\C/C=C\C/C=C\CCCC(=O)O`: 6.98. Next, `CC/C=C\C/C=C\C/C=C\CCCCCCCC(=O)O`: 6.46; `CCCCCC(=O)O`: 1.87.

The compound `CCCCCCCCCCCCCCCC(=O)O` displayed a log partition coefficient (logP) of 7.17. `CCCCCCCCCCCCCCCCCCCC(=O)O` came in with a lipophilicity (logP) of 9.29. The value for `CCCCCCCCCCCCCC(=O)O` was 6.11; that for `CCCCCCC/C=C\CCCCCCC(=O)O` was 6.58.

As for `CCCCC/C=C\C/C=C\CCCCCCCC(=O)O`, the lipophilicity (logP) was 7.05.
